Like-named read-outs stand apart in the source and are kept apart here. Positions of bridges follow the written chain, without caps; N, C: chain ends. Residues, ends and D or L forms follow the SMILES beside them.
Tests used:
hNav1.7 [1] = target: T1, hNav1.7 (Homo sapiens, UniProt Q15858); experiment: cell-based; format: cell-based; conditions: IonWorks Quattro; clamped to −110 mV, depolarized to −10 mV, 5 min after compound; n=2; read-out: IWQ Use Nav1.7
hNav1.5 [2] = target: T2, hNav1.5 (Homo sapiens, UniProt Q14524); experiment: cell-based
hNav1.3 [3] = target: T3, hNav1.3 (Homo sapiens, UniProt Q9NY46); experiment: cell-based
hNav1.7 [4] = target: T1, hNav1.7; experiment: cell-based; conditions: Nav1.7 Use IC50
hNav1.3 [5] = target: T3, hNav1.3; experiment: cell-based; format: cell-based; conditions: Nav1.3 Use IC50
hNav1.5 [6] = target: T2, hNav1.5; experiment: cell-based; remark: listed apart in the source
hNav1.4 = hNav1.4 (Homo sapiens, UniProt P35499); experiment: cell-based; conditions: IonWorks Quattro; clamped to −110 mV, depolarized to −10 mV, 5 min after compound; n=2; read-out: IWQ Use Nav1.4
[7] = system: locomotor activity in male CD-1 mice; conditions: 5 mg/kg s.c.; for total basic movement / total fine movement / total rearing / total time rearing: later studies (FIGS. 99-110), 1-hour pre-treatment
[8] = IonWorks Quattro, clamped to −110 mV, depolarized to −10 mV, 5 min after compound, n=2, read-out: IWQ Use Nav1.3
[9] = IonWorks Quattro, clamped to −110 mV, depolarized to −10 mV, 5 min after compound, n=2, read-out: IWQ Use Nav1.5

T3 sequence (Q9NY46 whole entry, looked up): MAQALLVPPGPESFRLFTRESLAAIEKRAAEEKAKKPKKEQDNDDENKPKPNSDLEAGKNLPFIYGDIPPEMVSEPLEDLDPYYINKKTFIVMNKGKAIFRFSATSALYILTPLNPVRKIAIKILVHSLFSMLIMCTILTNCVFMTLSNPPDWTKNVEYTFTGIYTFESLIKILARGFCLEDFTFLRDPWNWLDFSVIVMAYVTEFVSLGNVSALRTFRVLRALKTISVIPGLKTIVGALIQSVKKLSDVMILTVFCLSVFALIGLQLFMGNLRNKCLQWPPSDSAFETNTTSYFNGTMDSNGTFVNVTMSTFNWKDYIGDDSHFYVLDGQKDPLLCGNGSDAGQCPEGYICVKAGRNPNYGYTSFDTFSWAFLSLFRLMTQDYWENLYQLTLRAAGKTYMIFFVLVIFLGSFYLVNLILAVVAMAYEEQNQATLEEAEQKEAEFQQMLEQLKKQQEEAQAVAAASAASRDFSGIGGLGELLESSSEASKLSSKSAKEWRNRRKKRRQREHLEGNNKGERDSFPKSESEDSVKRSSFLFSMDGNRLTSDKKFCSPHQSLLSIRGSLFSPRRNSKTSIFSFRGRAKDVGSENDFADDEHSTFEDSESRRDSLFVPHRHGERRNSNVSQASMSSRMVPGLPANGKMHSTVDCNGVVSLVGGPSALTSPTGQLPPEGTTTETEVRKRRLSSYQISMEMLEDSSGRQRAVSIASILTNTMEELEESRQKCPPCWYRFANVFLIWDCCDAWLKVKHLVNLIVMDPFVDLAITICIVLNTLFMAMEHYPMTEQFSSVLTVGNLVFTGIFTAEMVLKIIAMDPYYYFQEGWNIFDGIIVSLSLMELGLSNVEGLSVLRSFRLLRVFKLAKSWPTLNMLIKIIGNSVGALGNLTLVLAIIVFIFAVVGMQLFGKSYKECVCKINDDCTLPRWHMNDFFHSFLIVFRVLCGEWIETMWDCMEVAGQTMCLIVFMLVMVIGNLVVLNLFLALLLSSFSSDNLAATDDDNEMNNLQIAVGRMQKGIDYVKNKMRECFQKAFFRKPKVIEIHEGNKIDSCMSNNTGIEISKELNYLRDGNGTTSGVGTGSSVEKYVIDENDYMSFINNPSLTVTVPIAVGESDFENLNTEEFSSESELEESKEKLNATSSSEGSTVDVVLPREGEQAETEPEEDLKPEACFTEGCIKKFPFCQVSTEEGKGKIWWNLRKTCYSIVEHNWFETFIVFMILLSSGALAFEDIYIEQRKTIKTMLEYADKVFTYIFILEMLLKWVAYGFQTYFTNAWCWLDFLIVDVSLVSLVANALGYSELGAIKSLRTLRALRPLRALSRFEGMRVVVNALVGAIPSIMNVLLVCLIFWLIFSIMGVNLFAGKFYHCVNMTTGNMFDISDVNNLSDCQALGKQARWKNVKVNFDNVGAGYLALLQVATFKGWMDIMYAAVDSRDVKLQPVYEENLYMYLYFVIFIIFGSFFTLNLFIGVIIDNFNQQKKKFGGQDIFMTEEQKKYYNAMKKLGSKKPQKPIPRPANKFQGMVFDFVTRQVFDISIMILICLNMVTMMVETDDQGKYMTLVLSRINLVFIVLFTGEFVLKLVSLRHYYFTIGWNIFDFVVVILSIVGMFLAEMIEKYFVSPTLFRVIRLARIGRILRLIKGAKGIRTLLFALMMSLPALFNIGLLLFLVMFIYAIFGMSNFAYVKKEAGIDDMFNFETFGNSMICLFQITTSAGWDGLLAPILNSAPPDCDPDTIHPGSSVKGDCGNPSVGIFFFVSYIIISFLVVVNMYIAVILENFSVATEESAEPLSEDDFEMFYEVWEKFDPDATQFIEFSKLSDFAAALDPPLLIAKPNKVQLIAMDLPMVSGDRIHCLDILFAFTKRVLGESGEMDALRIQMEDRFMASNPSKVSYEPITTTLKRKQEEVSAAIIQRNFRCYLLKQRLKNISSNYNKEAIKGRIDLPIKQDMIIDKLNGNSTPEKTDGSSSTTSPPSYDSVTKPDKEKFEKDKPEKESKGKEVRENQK
T1 sequence (Q15858 whole entry, looked up): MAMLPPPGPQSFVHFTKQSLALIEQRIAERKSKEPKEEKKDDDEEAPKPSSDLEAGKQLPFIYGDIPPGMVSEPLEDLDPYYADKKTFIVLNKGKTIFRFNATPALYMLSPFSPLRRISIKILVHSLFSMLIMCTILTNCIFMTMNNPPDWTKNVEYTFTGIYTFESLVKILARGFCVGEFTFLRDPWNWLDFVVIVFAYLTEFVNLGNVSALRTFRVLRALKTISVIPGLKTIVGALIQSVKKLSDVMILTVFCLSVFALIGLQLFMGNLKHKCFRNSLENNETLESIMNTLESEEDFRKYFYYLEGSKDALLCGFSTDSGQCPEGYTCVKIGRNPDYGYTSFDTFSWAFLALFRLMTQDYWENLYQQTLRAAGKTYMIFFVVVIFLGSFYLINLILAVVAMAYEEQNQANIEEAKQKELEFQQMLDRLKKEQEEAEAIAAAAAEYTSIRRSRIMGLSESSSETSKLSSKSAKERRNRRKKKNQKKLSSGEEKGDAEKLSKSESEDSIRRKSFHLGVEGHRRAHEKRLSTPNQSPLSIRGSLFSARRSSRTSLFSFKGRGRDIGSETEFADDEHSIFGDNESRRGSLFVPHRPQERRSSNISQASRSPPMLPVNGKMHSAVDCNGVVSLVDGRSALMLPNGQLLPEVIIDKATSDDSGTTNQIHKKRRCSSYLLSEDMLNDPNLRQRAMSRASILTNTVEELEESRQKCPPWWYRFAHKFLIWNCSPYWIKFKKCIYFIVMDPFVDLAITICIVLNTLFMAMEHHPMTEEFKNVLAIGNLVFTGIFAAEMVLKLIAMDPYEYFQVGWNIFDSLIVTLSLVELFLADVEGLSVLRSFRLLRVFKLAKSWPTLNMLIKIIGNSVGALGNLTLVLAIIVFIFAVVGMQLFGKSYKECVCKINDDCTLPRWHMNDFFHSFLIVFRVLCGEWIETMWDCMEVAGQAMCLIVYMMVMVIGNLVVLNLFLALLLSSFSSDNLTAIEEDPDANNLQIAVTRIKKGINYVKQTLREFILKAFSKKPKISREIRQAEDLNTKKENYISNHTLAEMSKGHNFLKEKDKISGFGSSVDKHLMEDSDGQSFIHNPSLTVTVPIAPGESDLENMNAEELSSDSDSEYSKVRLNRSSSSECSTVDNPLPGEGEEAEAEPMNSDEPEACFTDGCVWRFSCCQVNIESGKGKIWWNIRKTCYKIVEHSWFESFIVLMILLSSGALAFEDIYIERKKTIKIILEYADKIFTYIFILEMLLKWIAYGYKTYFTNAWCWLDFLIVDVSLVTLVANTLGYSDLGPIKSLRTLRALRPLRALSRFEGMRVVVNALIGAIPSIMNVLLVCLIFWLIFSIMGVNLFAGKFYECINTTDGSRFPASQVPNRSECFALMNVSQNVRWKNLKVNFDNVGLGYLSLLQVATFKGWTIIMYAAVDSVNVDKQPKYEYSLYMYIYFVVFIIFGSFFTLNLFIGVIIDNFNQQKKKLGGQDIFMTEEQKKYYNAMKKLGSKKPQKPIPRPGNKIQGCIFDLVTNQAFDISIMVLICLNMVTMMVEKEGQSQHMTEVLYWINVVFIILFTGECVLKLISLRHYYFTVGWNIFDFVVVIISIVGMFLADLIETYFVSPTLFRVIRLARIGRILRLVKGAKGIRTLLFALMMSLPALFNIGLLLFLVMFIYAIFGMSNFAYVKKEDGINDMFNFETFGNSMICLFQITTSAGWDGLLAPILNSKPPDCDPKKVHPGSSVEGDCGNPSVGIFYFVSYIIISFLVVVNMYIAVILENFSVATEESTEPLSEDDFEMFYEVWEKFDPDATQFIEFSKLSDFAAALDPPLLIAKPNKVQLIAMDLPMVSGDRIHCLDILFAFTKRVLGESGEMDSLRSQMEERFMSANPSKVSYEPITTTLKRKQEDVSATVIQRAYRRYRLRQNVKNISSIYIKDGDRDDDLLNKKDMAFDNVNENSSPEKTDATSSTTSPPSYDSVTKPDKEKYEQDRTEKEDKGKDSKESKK

SMILES	IC50 (hNav1.7 [1])	IC50 (hNav1.5 [2]; IWQ Use Nav1.5)	IC50 (hNav1.3 [3]; [8])	IC50 (hNav1.7 [4])	IC50 (hNav1.3 [5])	IC50 (hNav1.5 [6])	IC50 (hNav1.5 [2]; [9])	IC50 (hNav1.3 [3])	IC50 (hNav1.4)	locomotor activity in the open field analysis [7]	total basic movement [7]	total fine movement [7]	total rearing [7]	total time rearing [7]
CC[C@H](C)[C@@H]1NC(=O)[C@@H]2CSSC[C@@H]3NC(=O)[C@H](C(C)C)NC(=O)[C@H](CC(C)C)NC(=O)[C@H](CC(N)=O)NC(=O)[C@@H]4CCCN4C(=O)[C@H](CCCNC(=N)N)NC(=O)[C@H](CSSC[C@H](NC(=O)[C@@H](N)CC(=O)O)C(=O)N[C@@H](CC(C)C)C(=O)NCC(=O)N[C@@H](Cc4ccccc4)C(=O)N[C@@H](Cc4cccc5ccccc45)C(=O)N[C@@H](CCCNC(=N)N)C(=O)N[C@@H](CCCCN)C(=O)N2)NC(=O)[C@H](CSSC[C@@H](C(=O)N[C@@H](CCCCN)C(=O)N[C@@H](Cc2ccc(O)cc2)C(=O)N[C@H](C(=O)N[C@@H](Cc2ccccc2)C(N)=O)C(C)C)NC(=O)[C@H](Cc2c[nH]c4ccccc24)NC(=O)[C@H](CCCCN)NC(=O)[C@H](Cc2c[nH]cn2)NC(=O)[C@H]([C@@H](C)O)NC(=O)[C@H](CCCNC(=N)N)NC(=O)[C@H](CO)NC3=O)NC(=O)[C@H](CCCCN)NC(=O)[C@H](CC(=O)O)NC(=O)[C@H](CC(N)=O)NC(=O)[C@H](CC(=O)O)NC(=O)[C@@H]2CCCN2C1=O [SEQ ID NO: 161]	7 nM	2340 nM	6 nM	3 nM	4 nM	358 nM								
CC[C@H](C)[C@@H]1NC(=O)[C@@H]2CSSC[C@@H]3NC(=O)[C@H](C(C)C)NC(=O)[C@H](CC(C)C)NC(=O)[C@H](CC(N)=O)NC(=O)[C@@H]4CCCN4C(=O)[C@H](CCCNC(=N)N)NC(=O)[C@H](CSSC[C@H](NC(=O)[C@@H](N)CC(=O)O)C(=O)N[C@@H](CC(C)C)C(=O)NCC(=O)N[C@@H](CC4CCCCC4)C(=O)N[C@@H](CCSC)C(=O)N[C@@H](CCCNC(=N)N)C(=O)N[C@@H](CCCCN)C(=O)N2)NC(=O)[C@H](CSSC[C@@H](C(=O)N[C@@H](CCCCN)C(=O)N[C@@H](Cc2ccc(O)cc2)C(=O)N[C@H](C(=O)N[C@@H](Cc2ccccc2)C(N)=O)C(C)C)NC(=O)[C@H](Cc2c[nH]c4ccccc24)NC(=O)[C@H](CCCCN)NC(=O)[C@H](Cc2cnc[nH]2)NC(=O)[C@H]([C@@H](C)O)NC(=O)[C@H](CCCNC(=N)N)NC(=O)[C@H](CO)NC3=O)NC(=O)[C@H](CCCCN)NC(=O)[C@H](CC(=O)O)NC(=O)[C@H](CC(N)=O)NC(=O)[C@H](CC(=O)O)NC(=O)[C@@H]2CCCN2C1=O [SEQ ID NO: 243]	10 nM			3 nM	7 nM	3390 nM	6990 nM	20 nM						
CC(C)C[C@H](NC(=O)[C@H](CCCCN)NC(=O)[C@H](Cc1ccc(O)cc1)NC(=O)[C@H](CCCCN)NC(=O)[C@@H]1CSSC[C@@H]2NC(=O)[C@H](CCCCN)NC(=O)[C@H](CC(=O)O)NC(=O)[C@H](CC(N)=O)NC(=O)[C@H](CC(=O)O)NC(=O)[C@@H]3CCCN3C(=O)[C@H](CC(=O)O)NC(=O)[C@@H]3CSSC[C@H](NC(=O)[C@H](CCCCN)NC(=O)[C@H](Cc4ccc(O)cc4)NC(=O)CNC(=O)[C@H](CCC(=O)O)NC(=O)[C@H](CSSC[C@H](NC(=O)[C@@H](N)CC(=O)O)C(=O)N[C@@H](CC(C)C)C(=O)NCC(=O)N[C@@H](Cc4c[nH]c5ccccc45)C(=O)N[C@@H](Cc4ccccc4)C(=O)N[C@@H](CCCCN)C(=O)NCC(=O)N3)NC2=O)C(=O)N[C@@H](CC(N)=O)C(=O)N[C@@H](CCCNC(=N)N)C(=O)N[C@@H](CCCNC(=N)N)C(=O)N[C@@H](CC(=O)O)C(=O)N[C@@H](CCCCN)C(=O)N[C@@H](Cc2c[nH]c3ccccc23)C(=O)N1)C(N)=O [SEQ ID NO: 468] (H-DCLGWFKGCDPDNDKCCEGYKCNRRDKWCKYKL-NH2; disulfide 2-17, 9-22, 16-29)	8930 nM		9370 nM				7800 nM		20000 nM					
CC[C@H](C)[C@@H]1NC(=O)[C@@H]2CSSC[C@@H]3NC(=O)[C@H](C(C)C)NC(=O)[C@H](CC(C)C)NC(=O)[C@H](CC(N)=O)NC(=O)[C@@H]4CCCN4C(=O)[C@H](CCCNC(=N)N)NC(=O)[C@H](CSSC[C@H](NC(=O)[C@@H](N)CC(=O)O)C(=O)N[C@@H](CC(C)C)C(=O)NCC(=O)N[C@@H](Cc4ccccc4)C(=O)N[C@@H](CCSC)C(=O)N[C@@H](CCCNC(=N)N)C(=O)N[C@@H](CCCCN)C(=O)N2)NC(=O)[C@H](CSSC[C@@H](C(=O)N[C@@H](CCCCN)C(=O)N[C@@H](Cc2ccc(O)cc2)C(=O)N[C@H](C(=O)N[C@@H](Cc2ccccc2)C(N)=O)C(C)C)NC(=O)[C@H](Cc2c[nH]c4ccccc24)NC(=O)[C@H](CCC(=O)O)NC(=O)[C@H](Cc2cnc[nH]2)NC(=O)[C@H]([C@@H](C)O)NC(=O)[C@H](CCCNC(=N)N)NC(=O)[C@H](CO)NC3=O)NC(=O)[C@H](CCCCN)NC(=O)[C@H](CC(=O)O)NC(=O)[C@H](CC(N)=O)NC(=O)[C@H](CC(=O)O)NC(=O)[C@@H]2CCCN2C1=O [[Glu28]GpTx-1(1-34)] (H-DCLGFMRKCIPDNDKCCRPNLVCSRTHEWCKYVF-NH2; disulfide 2-17, 9-23, 16-30)										significantly reduced locomotor activity	significantly reduced	significantly reduced	significantly reduced	significantly reduced
CC[C@H](C)[C@@H]1NC(=O)[C@@H]2CSSC[C@@H]3NC(=O)[C@H](C(C)C)NC(=O)[C@H](CC(C)C)NC(=O)[C@H](CC(N)=O)NC(=O)[C@@H]4CCCN4C(=O)[C@H](CCCNC(=N)N)NC(=O)[C@H](CSSC[C@H](NC(=O)[C@@H](N)CC(=O)O)C(=O)N[C@@H](CC(C)C)C(=O)NCC(=O)N[C@@H](Cc4ccccc4)C(=O)N[C@@H](CCSC)C(=O)N[C@@H](CCCNC(=N)N)C(=O)N[C@@H](CCCCN)C(=O)N2)NC(=O)[C@H](CSSC[C@@H](C(=O)N[C@@H](CCCCN)C(=O)N[C@@H](Cc2ccc(O)cc2)C(=O)N[C@H](C(=O)N[C@@H](Cc2ccccc2)C(N)=O)C(C)C)NC(=O)[C@H](CCC(=O)O)NC(=O)[C@H](CCCCN)NC(=O)[C@H](Cc2cnc[nH]2)NC(=O)[C@H]([C@@H](C)O)NC(=O)[C@H](CCCNC(=N)N)NC(=O)[C@H](CO)NC3=O)NC(=O)[C@H](CCCCN)NC(=O)[C@H](CC(=O)O)NC(=O)[C@H](CC(N)=O)NC(=O)[C@H](CC(=O)O)NC(=O)[C@@H]2CCCN2C1=O [[Glu29]GpTx-1(1-34)] (H-DCLGFMRKCIPDNDKCCRPNLVCSRTHKECKYVF-NH2; disulfide 2-17, 9-23, 16-30)											did not significantly decrease	not significantly affected	did not significantly decrease	not significantly affected

Reference: US9340590B2 (priority 2011, dated 2016)
